Source: ChEMBL document CHEMBL3351697, “Recent advances in the structural library of functionalized quinazoline and quinazolinone scaffolds: synthetic approaches and multifarious applications” (Eur J Med Chem, 2014)
≈ marks a conversion by molar mass, not a printed value.

Tests used:
[1] = Antiproliferative activity against human PC3 cells by MTT assay; type: functional, cell-based; details: PC-3
PC-3 [2] = test: Induction of apoptosis in human PC3 cells at 1 uM after 72 hrs by Hoechst 33258 staining; type: functional
Bcap37 [3] = test: Antiproliferative activity against human Bcap37 cells at 10 uM by MTT assay; type: functional
Bcap37 [4] = test: Antiproliferative activity against human Bcap37 cells by MTT assay; type: functional, cell-based
[5] = Antiproliferative activity against human BGC823 cells at 10 uM by MTT assay; type: functional; details: BGC-823
PC-3 [6] = test: Induction of apoptosis in human PC3 cells at 10 uM after 72 hrs by Hoechst 33258 staining; type: functional
[7] = Antiproliferative activity against human PC3 cells at 10 uM by MTT assay; type: functional; details: PC-3
[8] = Antiproliferative activity against human BGC823 cells by MTT assay; type: functional, cell-based; details: BGC-823
[9] = Protective index, ratio of neurotoxicity in mouse by rotarod test to ED50 for inhibition of maximal electroshock-induced seizures in mouse; type: toxicity, organism-based; details: in vivo, read-out: PI
SNB-75 = test: Growth inhibition of human SNB75 cells after 48 hrs by SRB assay; type: functional; details: SNB-75, 48 h
MCF7 [10] = test: Potency index, ratio of cisplatin IC50 to compound IC50 for human MCF7 cells; type: functional
MCF7 [11] = test: Antiproliferative activity against human MCF7 cells
[12] = Antiproliferative activity against human HSC3 cells; type: functional, cell-based; details: HSC-3
[13] = Antiproliferative activity against human H460 cells; type: functional, cell-based; details: NCI-H460
M21 = test: Antiproliferative activity against human M21 cells; type: functional, cell-based
[14] = Antiproliferative activity against human Hep3B cells; type: functional, cell-based, Hep 3B2
[15] = Antiproliferative activity against human CH27 cells; type: functional, cell-based
[16] = Cytotoxicity against human HCT116 cells assessed as cell viability after 24 hrs by MTT assay; type: functional, cell-based; details: HCT-116, 24 h
HepG2 = test: Cytotoxicity against human HepG2 cells assessed as cell viability after 24 hrs by MTT assay; type: functional, cell-based; details: HepG2, 24 h
[17] = Antiproliferative activity against human NCI60 cells; type: functional
MCF7 [18] = test: Antiproliferative activity against human MCF7 cells after 48 hrs by SRB assay; type: functional, cell-based
RAW264.7 = test: Antiinflammatory activity in mouse RAW264.7 cells assessed as inhibition of LPS-induced nitric oxide production at 20 ug/ml after 24 hrs by Griess method; type: functional; details: RAW264.7, 24 h
Rattus norvegicus = test: Antiinflammatory activity in rat assessed as inhibition of carrageenan-induced paw edema at 25 to 200 mg/kg, po administered 1 hr before carrageenan challenge measured at 6 hrs; type: functional; design: scale not given: the % may be the effect or the level left; details: dose mg/kg 25-200
Pseudomonas aeruginosa = test: Antibacterial activity against Pseudomonas aeruginosa MTCC 741 assessed as growth inhibition at 100 ug/ml by agar well diffusion method; type: functional; details: read-out: GI
Escherichia coli = test: Antibacterial activity against Escherichia coli MTCC 443 assessed as growth inhibition at 100 ug/ml by agar well diffusion method; type: functional; details: read-out: GI
[19] = tested on: Staphylococcus epidermidis; test: Antibacterial activity against Staphylococcus epidermidis MTCC 435 assessed as growth inhibition at 100 ug/ml by agar well diffusion method; type: functional; details: read-out: GI
Staphylococcus aureus = test: Antibacterial activity against Staphylococcus aureus MTCC 96 assessed as growth inhibition at 100 ug/ml by agar well diffusion method; type: functional; details: read-out: GI
[20] = Inhibition of alpha-glucosidase (unknown origin); design: species or system Homo sapiens
[21] = molecular target: Vascular endothelial growth factor receptor 2 (Homo sapiens, UniProt P35968); test: Inhibition of VEGFR2 (unknown origin)
Sequence of Vascular endothelial growth factor receptor 2 (P35968 whole entry): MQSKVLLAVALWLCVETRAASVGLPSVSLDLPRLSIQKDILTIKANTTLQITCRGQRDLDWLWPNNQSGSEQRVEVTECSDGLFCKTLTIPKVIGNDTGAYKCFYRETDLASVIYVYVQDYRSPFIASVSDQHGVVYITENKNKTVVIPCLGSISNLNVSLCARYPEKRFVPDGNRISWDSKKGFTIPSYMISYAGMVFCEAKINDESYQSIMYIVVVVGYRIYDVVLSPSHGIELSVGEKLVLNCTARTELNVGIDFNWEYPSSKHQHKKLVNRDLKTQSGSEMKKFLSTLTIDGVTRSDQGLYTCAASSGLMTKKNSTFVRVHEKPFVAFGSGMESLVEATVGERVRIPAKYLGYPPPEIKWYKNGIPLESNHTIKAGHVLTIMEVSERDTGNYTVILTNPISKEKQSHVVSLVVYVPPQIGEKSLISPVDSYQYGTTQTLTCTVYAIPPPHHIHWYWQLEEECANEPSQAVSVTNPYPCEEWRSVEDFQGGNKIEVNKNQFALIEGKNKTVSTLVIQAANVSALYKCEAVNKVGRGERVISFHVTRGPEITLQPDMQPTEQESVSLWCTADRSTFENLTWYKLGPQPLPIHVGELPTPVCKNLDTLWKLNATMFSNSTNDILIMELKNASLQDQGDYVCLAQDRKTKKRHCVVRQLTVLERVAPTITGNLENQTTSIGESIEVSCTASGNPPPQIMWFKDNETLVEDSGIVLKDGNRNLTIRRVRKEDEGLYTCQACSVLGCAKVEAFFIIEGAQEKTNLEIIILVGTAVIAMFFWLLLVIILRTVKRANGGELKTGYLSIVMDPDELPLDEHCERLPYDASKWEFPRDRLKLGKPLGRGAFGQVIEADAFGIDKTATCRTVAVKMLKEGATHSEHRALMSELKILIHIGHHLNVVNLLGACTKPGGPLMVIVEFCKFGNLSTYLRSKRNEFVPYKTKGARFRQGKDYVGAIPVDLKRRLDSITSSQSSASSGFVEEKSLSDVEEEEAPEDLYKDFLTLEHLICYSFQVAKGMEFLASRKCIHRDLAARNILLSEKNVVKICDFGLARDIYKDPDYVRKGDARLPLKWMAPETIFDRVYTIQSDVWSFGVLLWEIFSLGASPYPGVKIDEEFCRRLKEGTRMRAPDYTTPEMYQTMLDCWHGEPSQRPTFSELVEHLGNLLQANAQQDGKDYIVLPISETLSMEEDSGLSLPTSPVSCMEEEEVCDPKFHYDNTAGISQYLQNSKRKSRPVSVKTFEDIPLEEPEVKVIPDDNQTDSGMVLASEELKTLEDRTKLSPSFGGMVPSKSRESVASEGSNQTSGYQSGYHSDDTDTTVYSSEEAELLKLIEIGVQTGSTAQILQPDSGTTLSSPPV

A549 = test: Antiproliferative activity against human A549 cells; type: functional, cell-based
[22] = molecular target: Proto-oncogene tyrosine-protein kinase Src (Homo sapiens, UniProt P12931); test: Inhibition of c-Src (unknown origin)
Sequence of Proto-oncogene tyrosine-protein kinase Src (P12931 2-536 limits assumed): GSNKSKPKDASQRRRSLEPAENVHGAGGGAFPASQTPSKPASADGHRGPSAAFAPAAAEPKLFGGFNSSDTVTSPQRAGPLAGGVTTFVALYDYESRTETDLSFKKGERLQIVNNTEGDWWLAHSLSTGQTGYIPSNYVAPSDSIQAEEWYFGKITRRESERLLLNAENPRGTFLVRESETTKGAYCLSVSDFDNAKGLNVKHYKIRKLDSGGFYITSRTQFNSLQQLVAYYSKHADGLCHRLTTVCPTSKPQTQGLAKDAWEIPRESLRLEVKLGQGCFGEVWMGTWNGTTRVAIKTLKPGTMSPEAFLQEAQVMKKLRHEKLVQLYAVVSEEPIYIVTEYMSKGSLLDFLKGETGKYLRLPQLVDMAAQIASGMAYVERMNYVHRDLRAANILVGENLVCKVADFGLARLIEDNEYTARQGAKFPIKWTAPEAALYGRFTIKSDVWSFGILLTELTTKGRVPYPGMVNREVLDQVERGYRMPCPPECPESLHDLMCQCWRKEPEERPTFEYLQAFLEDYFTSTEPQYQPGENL

[23] = Inhibition of Mycobacterium tuberculosis GlmU
[24] = tested on: Mycobacterium tuberculosis; test: Antitubercular activity against Mycobacterium tuberculosis H37Rv assessed as growth inhibition; type: functional

Compound: COc1cc2ncnc(NCCc3ccccc3F)c2c(OC)c1OC
- IC50 [1]: 6200 nM
- Activity (PC-3 [2]): 11.6%
- inhibition at 10 µM (Bcap37 [3]): 90.4%
- IC50 (Bcap37 [4]): 3100 nM
- inhibition at 10 µM [5]: 88.2%
- Activity (PC-3 [6]): 31.8%
- inhibition at 10 µM [7]: 90.6%
- IC50 [8]: 3200 nM

Compound: COc1cc2ncnc(Nc3cccc(Br)c3)c2cc1OC
- IC50 [1]: 8300 nM

Compound: Nc1nnc2c3ccccc3nc(-c3ccccc3Br)n12
- selectivity ratio [9]: 5.8

Compound: O=c1c2ccc(Cl)cc2nc(-c2ccccc2)n1/N=C/c1ccc(Cl)cc1
- GI50 (SNB-75): 2570 nM
- CC50 (SNB-75; read-out: pLC50 (the source's name) (converted)): 39800 nM
- TGI (SNB-75; read-out: pTGI (converted)): 7590 nM

Compound: N#Cc1c(F)c(F)c2nc(-c3ccc(C(F)(F)F)cc3)nc(N)c2c1F
- Ratio IC50 (MCF7 [10]): <=40

Compound: O=c1c2cc(Br)cc(Br)c2nc(-c2ccccc2)n1-c1ccc(C2=NN(c3ccccc3)C(Cc3ccccc3)C2)cc1 (centres undefined)
- IC50 (MCF7 [11]): 1.7 µg/mL

Compound: O=c1[nH]c(-c2ccc3ccccc3c2)nc2ccc(N3CCCC3)cc12
- IC50 [12]: 40 nM
- IC50 [13]: 80 nM
- IC50 (M21): 30 nM
- IC50 [14]: 1350 nM
- IC50 [15]: 50 nM

Compound: COc1ccc2nc(-c3ccc4ccccc4c3)[nH]c(=O)c2c1
- IC50 [12]: 150 nM
- IC50 [13]: 70 nM
- IC50 (M21): 90 nM
- IC50 [14]: 1940 nM
- IC50 [15]: 90 nM

Compound: CSc1nc2n(n1)c1ccccc1c1nnc(-c3ccncc3)n12
- IC50 [16]: 11.5 µg/mL (≈ 34.5 µM)
- IC50 (HepG2): 9.34 µg/mL (≈ 28 µM)

Compound: CCOc1nc2nc(SC)nn2c2ccccc12
- IC50 [16]: 17.4 µg/mL (≈ 66.8 µM)
- IC50 (HepG2): 19.2 µg/mL (≈ 73.8 µM)

Compound: COc1cc2c(=O)n(-c3ccccc3)c(=O)[nH]c2cc1NC(=O)NCCc1ccccc1Cl
- GI50 [17]: 794 nM

Compound: O=C1CCC(=O)N1n1c(COc2ccccc2)nc2ccc(I)cc2c1=O
- IC50 (MCF7 [18]): 5490 nM

Compound: CCn1c(=O)c2ccccc2n2nc(SC)nc12
- inhibition at 20 µg/mL (RAW264.7): 50%

Compound: CSc1nc2nc(Cl)c3ccccc3n2n1
- inhibition at 20 µg/mL (RAW264.7): 50%

Compound: CC(=O)NS(=O)(=O)c1ccc(-n2c(C)nc3c(I)cc(I)cc3c2=O)cc1
- Activity (Rattus norvegicus): 74%

Compound: Cc1nc2c(I)cc(I)cc2c(=O)n1-c1ccc(S(=O)(=O)Nc2ncccn2)cc1
- inhibition of growth at 100 µg/mL (Pseudomonas aeruginosa): 61.9%
- inhibition of growth at 100 µg/mL (Escherichia coli): 61.9%
- inhibition of growth at 100 µg/mL [19]: 61.9%
- inhibition of growth at 100 µg/mL (Staphylococcus aureus): 61.9%

Compound: Cc1noc(NS(=O)(=O)c2ccc(-n3c(C)nc4c(I)cc(I)cc4c3=O)cc2)c1C
- inhibition of growth at 100 µg/mL (Pseudomonas aeruginosa): 61.9%
- inhibition of growth at 100 µg/mL (Escherichia coli): 61.9%
- inhibition of growth at 100 µg/mL [19]: 61.9%
- inhibition of growth at 100 µg/mL (Staphylococcus aureus): 61.9%

Compound: O=c1c2cc(-c3c(Cl)cccc3Cl)ccc2nc(C2CC2)n1Cc1cccnc1
- IC50 [20]: < 10000 nM

Compound: O=C(Nc1ccc(Nc2ccc([N+](=O)[O-])c3ncnc(O)c23)cc1)Nc1ccc(C(F)(F)F)cc1Cl
- IC50 [21]: 12 nM

Compound: Cc1ncc([N+](=O)[O-])n1CCOc1ncnc2ccccc12
- IC50 (MCF7 [11]): 350 nM
- IC50 [21]: 2.72 nM

Compound: O=C(Cc1cccc(Br)c1)Nc1ccc2ncnc(Nc3ccc(Br)cc3)c2c1
- IC50 (A549): 3420 nM
- IC50 [22]: 27.3 nM

Compound: COc1cc2ncnc(Nc3ccc(NC(=O)c4cccc(O)c4)cc3)c2cc1OC
- IC50 [23]: 74000 nM

Compound: COc1cc2c(=O)n(-c3ccccc3Cl)c(=O)[nH]c2cc1NC(=O)NCCc1ccccc1Cl
- GI50 [17]: 363 nM

Compound: COc1cccc2c1C(=O)c1c(O)c3c(c(O)c1C2=O)C[C@@](O)(C(=O)CO)C[C@@H]3O[C@H]1C[C@H](N)[C@H](O)[C@H](C)O1 [DOXORUBICIN]
- IC50 (MCF7 [18]): 5490 nM

Compound: NNC(=O)c1ccncc1 [ISONIAZID]
- growth inhibition (GI) [24]: 99%

Compound: CO[C@H]1/C=C/O[C@@]2(C)Oc3c(C)c(O)c4c(O)c(c(/C=N/N5CCN(C)CC5)c(O)c4c3C2=O)NC(=O)/C(C)=C\C=C\[C@H](C)[C@H](O)[C@@H](C)[C@@H](O)[C@@H](C)[C@H](OC(C)=O)[C@@H]1C [RIFAMPIN]
- growth inhibition (GI) [24]: 99%

Compound: COc1cc2nccc(Oc3ccc(NC(=O)Nc4cc(C)on4)c(Cl)c3)c2cc1OC [TIVOZANIB]
- IC50 (MCF7 [11]): 380 nM
